According to US20040259861A1, “Medicament inhibiting sodium/calcium exchange system” (priority 2001, published 2004):

Target: T1, sodium/calcium exchanger (Rattus norvegicus, UniProt Q01728)
T1 construct: The heart of the rat was excised and perfused with Krebs buffer solution; from tissue; host or cells: isolated Langendorff-perfused rat heart
Experiment: Langendorff-perfused rat heart, monensin treatment plus ischemia/reperfusion: ventricular total calcium content and recovery in contractile tension
Conditions: for Calcium Content: isolated rat heart, monensin 5 μM 10 min, ischemia 15 min, reperfusion 30 min; for effect on decreased recovery in contractile tension (in words) / effect on increased ventricular calcium content (in words): monensin treatment and ischemia/reperfusion, rat heart
Description: The heart of the rat was excised and perfused with Krebs buffer solution (in mM: NaCl 119, KCl 4.6, MgSO4.7H2O 1.2, CaCl2.2H2O 1.3, NaHCO3 25, KH2PO4 1.2, glucose 11; pH 7.4, 37° C.) according to Langendorff method. A thread attached to the apex of the heart was connected to a tension transducer to determine contractile tension. The heart was perfused with a perfusion solution containing monensin (5 μ M; sodium ionophore) for 10 min and then ischemia was induced by a cessation of coronary flow (for 15 min). After reperfusion for 30 min, the heart was liquefied in nitric acid, and ventricular total calcium content was determined by atomic absorption analysis. Contractile tension was measured during the experiment, and recovery in contractile tension at 30 min of reperfusion related to its pre-value was used as an index of cardiac contraction.

Structure (SMILES) | Calcium Content (10^−3 M) | Calcium Content (10^−4 M) | effect on decreased recovery in contractile tension (in words) | effect on increased ventricular calcium content (in words) | Calcium Content (10^−6 M) | Calcium Content (10^−7 M) | effect on increased ventricular calcium content (in words) (listed as The medicament of the present invention, monohydrate) | effect on increased ventricular calcium content (in words) (listed as the medicament of the present invention, monohydrate) | Calcium Content (10^−5 M)
N=C(N)NC(=O)c1nc(Cl)c(N)nc1N [Amiloride] | 4.26 ± 0.40 µmol/g | 5.30 ± 0.25 µmol/g | failed to exhibit these effects | failed to exhibit these effects |  |  |  |  | 
Cc1ccc(N2CCNCC2)c(S(=O)(=O)O)c1.O [Compound of the Present Invention, 5-methyl-2-(1-piperazinyl)benzenesulfonic acid monohydrate] |  |  | improved |  | 2.72 ± 0.18 µmol/g | 3.72 ± 0.16 µmol/g | improved | effective in reducing increase in ventricular calcium content | 
COc1ccc([C@@H]2Sc3ccccc3N(CCN(C)C)C(=O)[C@@H]2OC(C)=O)cc1 [Diltiazem] |  |  | failed to exhibit these effects | failed to exhibit these effects | 5.75 ± 0.16 µmol/g |  |  |  | 5.89 ± 0.22 µmol/g
